The record followed here is ChEMBL document CHEMBL3407364, “Synthesis and antitumor activity of ring A modified 11-keto-β-boswellic acid derivatives” (Eur J Med Chem, 2015).

Format in all cases: functional, cell-based
Assay [1] is described as follows: Cytotoxicity against human A253 cells assessed as cell survival after 96 hrs by SRB assay. The note with it: A253, 96 h. A general note: Sulforhodamine B stains cellular protein and so reports cell mass.
For assay [2], the system named is HT-29. Put plainly: Cytotoxicity against human HT-29 cells assessed as cell survival after 96 hrs by SRB assay. Conditions: HT-29, 96 h.
Assay [3] deals with A2780. The assay can be described thus: Cytotoxicity against human A2780 cells assessed as cell survival after 96 hrs by SRB assay. The note with it: A2780, 96 h.
Assay [4] can be described thus: Cytotoxicity against human DLD1 cells assessed as cell survival after 96 hrs by SRB assay. The note with it: DLD-1, 96 h.
Assay [5] concerns A2780. Put plainly: Induction of apoptosis in human A2780 cells assessed as DNA fragmentation at IC90 after 24 hrs by DNA-laddering assay.
Assay [6] concerns A2780. Put plainly: Induction of apoptosis in human A2780 cells assessed as intact cell membrane at IC90 after 24 hrs by trypan blue exclusion assay.
Assay [7] in a line: Cytotoxicity against human HCT8 cells assessed as cell survival after 96 hrs by SRB assay. Conditions: HCT-8, 96 h.

Activity calls are given as the source filed them. The calls are words filed in the database; no cut-off is given here.

The term IC50 denotes the point on the concentration scale where inhibition reaches its midpoint.

As to `C[C@H]1[C@H](C)CC[C@]2(C)CC[C@]3(C)C(=CC(=O)[C@@H]4[C@@]5(C)CC[C@H](N)[C@](C)(C(=O)O)[C@@H]5CC[C@]43C)[C@H]12`, the 50% inhibitory concentration (IC50) in assay [1] came to 5.6 µM; in assay [2] it was 8.7 µM; in assay [3], 7.3 µM; in assay [4], 9.9 µM; in assay [7] it was 12.5 µM. Also, the outcome in assay [5] and in assay [6] was Active.

Regarding `COC(=O)[C@@]1(C)C(=O)C(O)=C[C@]2(C)[C@H]3C(=O)C=C4[C@@H]5[C@@H](C)[C@H](C)CC[C@]5(C)CC[C@@]4(C)[C@]3(C)CC[C@@H]12`, the half-inhibitory concentration (IC50) is 42.3 µM in assay [1]; 29.9 µM in assay [2]; 41.1 µM in assay [3]; 34.1 µM in assay [4]; 39.7 µM in assay [7].

With `COC(=O)[C@@]1(C)/C(=N/O)CC[C@@]2(C)[C@H]1CC[C@]1(C)[C@@H]2C(=O)C=C2[C@@H]3[C@@H](C)[C@H](C)CC[C@]3(C)CC[C@]21C`, the 50% inhibitory concentration (IC50) was determined as 15.5 µM in assay [1]; 15.4 µM in assay [2]; 18 µM in assay [3]; 13.7 µM in assay [4]; 16.4 µM in assay [7].

Take `COC(=O)[C@@]1(C)[C@@H](C(=O)O)CC[C@@]2(C)[C@H]1CC[C@]1(C)[C@@H]2C(=O)C=C2[C@@H]3[C@@H](C)[C@H](C)CC[C@]3(C)CC[C@]21C`: the IC50 is 38.2 µM in assay [1]; 34.1 µM in assay [2]; 35.4 µM in assay [3]; 42.7 µM in assay [4]; 41.7 µM in assay [7].

For `CC(=O)O[C@@H]1CC[C@@]2(C)[C@@H](CC[C@]3(C)[C@@H]2C(=O)C=C2[C@@H]4[C@@H](C)[C@H](C)CC[C@]4(C)CC[C@]23C)[C@@]1(C)C(=O)O` [AKBA], the half-maximal inhibitory concentration (IC50) came to 16.9 µM in assay [1]; 19.4 µM in assay [2]; 14.1 µM in assay [3]; 20.9 µM in assay [4]; 17.5 µM in assay [7].

As for `COC(=O)[C@]1(C)[C@@H]2CC[C@]3(C)[C@H](C(=O)C=C4[C@@H]5[C@@H](C)[C@H](C)CC[C@]5(C)CC[C@]43C)[C@@]2(C)CC1(O)C(=O)O` (some centres not stated), the half-maximal inhibitory concentration (IC50) worked out at 54.9 µM in assay [1]; 51.4 µM in assay [2]; 53.6 µM in assay [3]; 56.1 µM in assay [4]; 46.9 µM in assay [7].

On to `C[C@H]1[C@H](C)CC[C@]2(C)CC[C@]3(C)C(=CC(=O)[C@@H]4[C@@]5(C)CCC(=O)[C@@H](C)[C@@H]5CC[C@]43C)[C@H]12`, for which the IC50 came to 39.4 µM in assay [1]; 28.2 µM in assay [2]; 23.5 µM in assay [3]; 57.3 µM in assay [4]; 30.2 µM in assay [7].

As to `C[C@H]1[C@H](C)CC[C@]2(C)CC[C@]3(C)C(=CC(=O)[C@@H]4[C@@]5(C)CC[C@@H](O)[C@](C)(C(=O)O)[C@@H]5CC[C@]43C)[C@H]12` [11-KETO BOSWELLIC ACID], the IC50 stood at 45.9 µM in assay [1]; 71.9 µM in assay [2]; 37.9 µM in assay [3]; 57.7 µM in assay [4]; 44.6 µM in assay [7].

As for `C[C@H]1[C@H](C)CC[C@]2(C)CC[C@]3(C)C(=CC=C4[C@@]5(C)CC[C@@H](O)[C@](C)(CO)[C@@H]5CC[C@]43C)[C@H]12`, the concentration for half-maximal inhibition (IC50) in assay [1] was 18.1 µM; in assay [2], 23.9 µM; in assay [3] it was 43.2 µM; in assay [4] it was 19.5 µM; in assay [7], 31.3 µM.

In the case of `COC(=O)[C@@]1(C)C=CC[C@@]2(C)[C@H]1CC[C@]1(C)[C@@H]2C(=O)C=C2[C@@H]3[C@@H](C)[C@H](C)CC[C@]3(C)CC[C@]21C`, the 50% inhibitory concentration (IC50) was 40.2 µM in assay [1]; 30.2 µM in assay [2]; 40.1 µM in assay [3]; 32.9 µM in assay [4]; 39.4 µM in assay [7].
